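These data come from cells grown in 96-well plates and exposed to compound for 48 hours at five concentrations. The concentration for 50% growth inhibition is given as GI50.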 The source made the active and inactive calls. No stated cut-off is given here; in the data, active = GI50 up to about 1.1 µM and inactive = higher.
Columns and labels:
Experiment in all cases: NCI tumour cell line growth inhibition, 48 h
786-0 = tested on: 786-0
A498 = tested on: A498
A549 = tested on: A549
ACHN = tested on: ACHN
CAKI-1 = tested on: CAKI-1
CCRF-CEM = tested on: CCRF-CEM
COLO 205 = tested on: COLO 205
DLD-1 = tested on: DLD-1
DMS-114 = tested on: DMS-114
DMS-273 = tested on: DMS-273
EKVX = tested on: EKVX
HCC 2998 = tested on: HCC 2998
HCT-116 = tested on: HCT-116
HCT-15 = tested on: HCT-15
HL-60 = tested on: HL-60
HOP-18 = tested on: HOP-18
HOP-62 = tested on: HOP-62
HOP-92 = tested on: HOP-92
HT-29 = tested on: HT-29
IGROV-1 = tested on: IGROV-1
K562 = tested on: K562
KM-20L2 = tested on: KM-20L2
KM12 = tested on: KM12
LOX IMVI = tested on: LOX IMVI
LXFL 529 = tested on: LXFL 529
M14 = tested on: M14
M19-MEL = tested on: M19-MEL
MOLT-4 = tested on: MOLT-4
Malme-3M = tested on: Malme-3M
NCI-H226 = tested on: NCI-H226
NCI-H23 = tested on: NCI-H23
NCI-H460 = tested on: NCI-H460
NCI-H522 = tested on: NCI-H522
OVCAR-3 = tested on: OVCAR-3
OVCAR-4 = tested on: OVCAR-4
OVCAR-5 = tested on: OVCAR-5
OVCAR-8 = tested on: OVCAR-8
RPMI-8226 = tested on: RPMI-8226
RXF 393 = tested on: RXF 393
SF-268 = tested on: SF-268
SF-295 = tested on: SF-295
SF-539 = tested on: SF-539
SK-MEL-28 = tested on: SK-MEL-28
SK-MEL-2 = tested on: SK-MEL-2
SK-MEL-5 = tested on: SK-MEL-5
SK-OV-3 = tested on: SK-OV-3
SN12C = tested on: SN12C
SNB-19 = tested on: SNB-19
SNB-75 = tested on: SNB-75
SR = tested on: SR
SW-620 = tested on: SW-620
TK-10 = tested on: TK-10
U-251 = tested on: U-251
UACC-257 = tested on: UACC-257
UACC-62 = tested on: UACC-62
UO-31 = tested on: UO-31
XF498 = tested on: XF498

Compound: Cc1ccc(C)c(NC(=O)c2cc(-c3ccc([N+](=O)[O-])cc3)nc(N)n2)c1
- GI50 (786-0): > 100 µM (inactive)
- GI50 (A498): > 100 µM (inactive)
- GI50 (A549): > 100 µM (inactive)
- GI50 (ACHN): > 100 µM (inactive)
- GI50 (CAKI-1): > 100 µM (inactive)
- GI50 (CCRF-CEM): > 100 µM (inactive)
- GI50 (COLO 205): > 100 µM (inactive)
- GI50 (DLD-1): > 100 µM (inactive)
- GI50 (DMS-114): > 100 µM (inactive)
- GI50 (DMS-273): > 100 µM (inactive)
- GI50 (EKVX): > 100 µM (inactive)
- GI50 (HCC 2998): > 100 µM (inactive)
- GI50 (HCT-116): > 100 µM (inactive)
- GI50 (HCT-15): > 100 µM
- GI50 (HL-60): > 100 µM (inactive)
- GI50 (HOP-18): > 100 µM (inactive)
- GI50 (HOP-62): > 100 µM (inactive)
- GI50 (HOP-92): > 100 µM (inactive)
- GI50 (HT-29): > 100 µM (inactive)
- GI50 (IGROV-1): > 100 µM (inactive)
- GI50 (K562): > 100 µM (inactive)
- GI50 (KM-20L2): > 100 µM (inactive)
- GI50 (KM12): > 100 µM (inactive)
- GI50 (LOX IMVI): > 100 µM (inactive)
- GI50 (LXFL 529): > 100 µM (inactive)
- GI50 (M14): > 100 µM (inactive)
- GI50 (M19-MEL): > 100 µM (inactive)
- GI50 (MOLT-4): > 100 µM (inactive)
- GI50 (Malme-3M): > 100 µM (inactive)
- GI50 (NCI-H226): > 100 µM (inactive)
- GI50 (NCI-H23): > 100 µM (inactive)
- GI50 (NCI-H460): > 100 µM (inactive)
- GI50 (NCI-H522): > 100 µM (inactive)
- GI50 (OVCAR-3): > 100 µM (inactive)
- GI50 (OVCAR-4): > 100 µM (inactive)
- GI50 (OVCAR-5): > 100 µM (inactive)
- GI50 (OVCAR-8): > 100 µM (inactive)
- GI50 (RPMI-8226): > 100 µM (inactive)
- GI50 (RXF 393): > 100 µM (inactive)
- GI50 (SF-268): > 100 µM (inactive)
- GI50 (SF-295): > 100 µM (inactive)
- GI50 (SF-539): > 100 µM (inactive)
- GI50 (SK-MEL-28): > 100 µM (inactive)
- GI50 (SK-MEL-2): > 100 µM (inactive)
- GI50 (SK-MEL-5): > 100 µM (inactive)
- GI50 (SK-OV-3): > 100 µM (inactive)
- GI50 (SN12C): > 100 µM (inactive)
- GI50 (SNB-19): > 100 µM (inactive)
- GI50 (SNB-75): > 100 µM (inactive)
- GI50 (SR): > 100 µM (inactive)
- GI50 (SW-620): > 100 µM (inactive)
- GI50 (TK-10): > 100 µM (inactive)
- GI50 (U-251): > 100 µM (inactive)
- GI50 (UACC-257): > 100 µM (inactive)
- GI50 (UACC-62): > 100 µM (inactive)
- GI50 (UO-31): > 100 µM (inactive)
- GI50 (XF498): > 100 µM (inactive)

Compound: Cc1nc2ccccc2c(=O)n1/N=C(\N=N\c1cccc(Cl)c1)c1ccccc1Cl
- GI50 (786-0): 83 µM (inactive)
- GI50 (A549): > 100 µM (inactive)
- GI50 (CAKI-1): > 100 µM (inactive)
- GI50 (CCRF-CEM): > 10 µM (inactive)
- GI50 (COLO 205): > 10 µM (inactive)
- GI50 (DLD-1): 75.5 µM (inactive)
- GI50 (DMS-273): 50.2 µM (inactive)
- GI50 (EKVX): 69.8 µM (inactive)
- GI50 (HCT-116): 36 µM (inactive)
- GI50 (HCT-15): > 100 µM
- GI50 (HL-60): > 10 µM (inactive)
- GI50 (HOP-18): 1.48 µM (inactive)
- GI50 (HOP-62): 37.8 µM (inactive)
- GI50 (HOP-92): 29.9 µM (inactive)
- GI50 (HT-29): > 100 µM (inactive)
- GI50 (IGROV-1): > 10 µM (inactive)
- GI50 (K562): 0.57 µM (active)
- GI50 (KM-20L2): > 100 µM (inactive)
- GI50 (LOX IMVI): > 100 µM (inactive)
- GI50 (LXFL 529): > 10 µM (inactive)
- GI50 (M14): > 100 µM (inactive)
- GI50 (M19-MEL): > 100 µM (inactive)
- GI50 (MOLT-4): > 10 µM (inactive)
- GI50 (NCI-H23): 64.9 µM (inactive)
- GI50 (NCI-H460): 49.9 µM (inactive)
- GI50 (NCI-H522): 29 µM (inactive)
- GI50 (OVCAR-8): > 100 µM (inactive)
- GI50 (RPMI-8226): > 100 µM (inactive)
- GI50 (RXF 393): 21.7 µM (inactive)
- GI50 (SF-295): 30.4 µM (inactive)
- GI50 (SF-539): 25.3 µM (inactive)
- GI50 (SK-MEL-5): > 100 µM (inactive)
- GI50 (SK-OV-3): 25.8 µM (inactive)
- GI50 (SN12C): > 100 µM (inactive)
- GI50 (SW-620): > 100 µM (inactive)
- GI50 (TK-10): 49.4 µM (inactive)
- GI50 (U-251): 37.9 µM (inactive)
- GI50 (UACC-62): > 100 µM (inactive)
- GI50 (UO-31): 99.3 µM (inactive)
- GI50 (XF498): 2.29 µM (inactive)

— ChEMBL document CHEMBL1201862, “PubChem BioAssay data set” (2004)
